The values that follow come from patent publication US20250154193A1, “STEROID COMPOUND, AND PREPARATION METHOD THEREFOR AND APPLICATION THEREOF” (CHOLESGEN (SHANGHAI) CO., LTD., priority 2022, published 2025).

In one data set the test system is SREBP pathway. The data set is described as follows: SREBP luciferase reporter gene system (SRE-luciferase assay) in Huh-7/SRE-Luc cells. It counts as cell-based. Particulars: Homo sapiens, sterol-deficient medium, compound treatment 16 hours, luciferase/GFP ratio. The protocol: Huh-7/SRE-Luc, a human hepatocellular carcinoma cell line, was grown in a culture medium containing DMEM, 10% fetal bovine serum, 100 units/mL penicillin, 100 µg/mL streptomycin, and 200 μg/mL G418.
The Huh-7/SRE-Luc cell line is a human hepatocellular carcinoma cell line Huh-7 stably expressing LDLR promoter-luciferase and green fluorescent protein (GFP). The LDLR promoter region contains a sterol regulatory element (SRE) that can effectively and sensitively respond to the regulation of the transcription factor SREBP. The GFP signal serves as an internal reference to indicate changes in cell number. Therefore, this cell line can be used to screen for active small molecules that regulate the SREBP signaling pathway. […] Cells were incubated in a sterol-deficient medium (5% lipoprotein-deficient serum, 2 μM Lovastatin, 10 μM mevalonate) and treated with corresponding concentrations of compounds for 16 hours. After compound treatment, the cells were lysed with lysis buffer (E397A, Promega), followed by the addition of luciferase substrate (E1500, Promega). The SRE-driven luciferase activity was measured using a BioTek Synergy HTX microplate reader (including but not limited to this type of instrument). The fluorescence intensity of enhanced green fluorescent protein (EGFP) was also measured using the BioTek microplate reader (including but not limited to this type of instrument) and used as an internal reference. The ratio of SRE-driven luciferase activity to GFP fluorescence intensity was used as an indicator of SREBP pathway activity. The test data of each test compound was analyzed using Prism software to obtain the IC50 parameter of the compound.
The inhibitory effect of the compounds of the present disclosure on the SREBP pathway was tested by the method of bioassay example 2. The concentration gradient of each compound was designed as 0.01, 0.03, 0.1, 0.3, 1.0, 3.0, and […], with DMSO as a vehicle control.

Data set [1] can be described thus: Liver microsomal metabolic stability assay. It counts as in vitro ADME. The note with it: rat liver microsomes, NADPH, 37° C., 0-60 minutes; read-out: Rat microsomal metabolic half-life (t1/2). The protocol:
PBS solution (100 mM), MgCl2 solution (100 mM), and NADPH solution (20 mM) were prepared respectively. Compound and testosterone (positive control) stock solutions were then prepared with dimethyl sulfoxide (DMSO), diluted to 100 µM with methanol for sample incubation, and stored at −10 to −30° C. 12.5 μL of rat liver microsomes (purchased from XenoTech, Cat. No.: R1000, Lot No.: 1310030, specification: 20 mg/mL), 432.5 µL of PBS solution (100 mM), 25 µL of NADPH solution (20 mM), and 25 μL of MgCl2 solution (100 mM) were added to a 96-well plate, mixed well, and pre-incubated at 37° C. for 5 minutes. 5 µL of substrate (test compound) solution was added to start the reaction. At specified time points of 0, 5, 15, 30, 45, and 60 minutes (0 and 60 minutes for the negative control group), 50 µL of the incubated samples were added to a stop plate containing 100 µL of ice-cold stop solution, vortexed for 1 minute to inactivate the reaction, and stored at −60 to −90° C. for subsequent analysis. Sample analysis of the test compound and the control compound testosterone was performed using LC-MS/MS method. Chromatographic peaks were integrated, calculated, and processed using Analyst software. Semi-quantitative analysis was performed for both the test compound and the control compound testosterone by calculating peak area ratios.

On to `C[C@H](CCC[C@@H](O)c1ccccc1F)[C@H]1CC[C@H]2[C@@H]3CC[C@H]4[C@@H](O)[C@@H](O)CC[C@]4(C)[C@H]3CC[C@]12C` (single isomer, unassigned) [compound 279, 24-[R-(2-fluorophenyl)(hydroxy)methyl]-5α-cholan-30,40-diol or 24-[S-(2-fluorophenyl)(hydroxy)methyl]-5α-cholan-30,40-diol], for which the IC50 with SREBP pathway is 0.196 µM. In addition, the half-life at 1 µM in data set [1] was determined as 0.922 h.

Consider `C[C@H](CCCC(C)(C)O)[C@H]1CC[C@H]2[C@@H]3CC[C@H]4C[C@@H](O)CC[C@]4(C)[C@H]3CC[C@]12C` [compound 185, cholest-3β,25-diol], for which the IC50 with SREBP pathway was found to be 0.233 µM. The half-life at 1 µM in data set [1] turned out to be 3.17 h.

`C[C@H](CCCC(C)(C)O)[C@H]1CC[C@H]2[C@@H]3CC[C@H]4[C@@H](O)[C@@H](O)CC[C@]4(C)[C@H]3CC[C@]12C` [compound 198, 5α-Cholest-30,40,25-triol]: the IC50 in the data set with SREBP pathway was 0.106 µM. Also, in data set [1], the half-life at 1 µM is 1.2 h.

On to `C[C@H](CCCC(C)(C)O)[C@H]1CC[C@H]2[C@@H]3CC[C@H]4[C@H](O)[C@@H](O)CC[C@]4(C)[C@H]3CC[C@]12C` [compound 204, 5α-cholest-3β,4α,25-triol], for which the IC50 in the data set with SREBP pathway is 0.395 µM. Besides, the half-life at 1 µM in data set [1] was determined as 3.97 h.

For the compound `C[C@H](CCCC(C)(C)O)[C@H]1CC[C@H]2[C@@H]3C(=O)C[C@H]4C[C@@H](O)CC[C@]4(C)[C@H]3CC[C@]12C` [compound 216, 3P,25-dihydroxy-5α-cholest-7-one], the IC50 in the data set with SREBP pathway came out at 0.379 µM. In addition, the half-life at 1 µM in data set [1] came to 0.385 h.

Consider `C[C@H](CCCC(C)(C)O)[C@H]1CC[C@H]2[C@@H]3CC[C@H]4C(=O)[C@@H](O)CC[C@]4(C)[C@H]3CC[C@]12C` [compound 238, 3β,25-Dihydroxy-5α-cholest-4-one], for which, in the data set with SREBP pathway, the IC50 stood at 0.049 µM. The half-life at 1 µM in data set [1] turned out to be 1.26 h.

Take `C[C@H](CCCC(C)(C)O)[C@H]1CC[C@H]2[C@H]3[C@H](CC[C@]12C)[C@@]1(C)CC[C@H](O)[C@H](O)[C@@H]1CC3(F)F` [compound 274, (1R,3aS,3bS,5aR,6R,7S,9aR,9bS,11aR)-4,4-difluoro-1-[(2R)-6-hydroxy-6-methylheptan-2-yl]-9a,11a-dimethylhexadecahydro-1H-cyclopenta[1,2-a]phenanthrene-6,7-diol]: in the data set on SREBP pathway, the IC50 was found to be 0.313 µM. In addition, in data set [1], the half-life at 1 µM was greater than 3.1 h.

With `C[C@H](CCCC(O)c1c(F)cc(F)cc1F)[C@H]1CC[C@H]2[C@@H]3CC[C@H]4[C@@H](O)[C@@H](O)CC[C@]4(C)[C@H]3CC[C@]12C` (stereo partly drawn) [compound 275, 24-[(2,4,6-difluorophenyl)(hydroxy)methyl]-5α-cholan-3β,4β-diol], in the data set on SREBP pathway, the IC50 came to 0.141 µM. Moreover, the half-life at 1 µM in data set [1] was determined as 1.52 h.

For `C[C@H](CCCC(O)c1cccc(F)c1)[C@H]1CC[C@H]2[C@@H]3CC[C@H]4[C@@H](O)[C@@H](O)CC[C@]4(C)[C@H]3CC[C@]12C` (stereo partly drawn) [compound 281, 24-[(3-fluorophenyl)(hydroxy)methyl]-5α-cholan-3β,4β-diol], in the data set on SREBP pathway, the IC50 came out at 0.111 µM. Moreover, in data set [1], the half-life at 1 µM was determined as 1.17 h.

Consider `C[C@H](CCCC(O)c1c(F)cccc1F)[C@H]1CC[C@H]2[C@@H]3CC[C@H]4[C@@H](O)[C@@H](O)CC[C@]4(C)[C@H]3CC[C@]12C` (stereo partly drawn) [compound 284, 24-[(2,6-difluorophenyl)(hydroxy)methyl]-5α-cholan-3β,4β-diol], for which the IC50 with SREBP pathway came to 0.0874 µM. Besides, in data set [1], the half-life at 1 µM is greater than 2 h.

As to `COc1ccccc1C(O)CCC[C@@H](C)[C@H]1CC[C@H]2[C@@H]3CC[C@H]4[C@@H](O)[C@@H](O)CC[C@]4(C)[C@H]3CC[C@]12C` (stereo partly drawn) [compound 287, 24-[Hydroxy(2-methoxyphenyl)methyl]-5α-cholan-30,40-diol], the IC50 in the data set with SREBP pathway came out at 0.159 µM. In addition, the half-life at 1 µM in data set [1] is 1.27 h.

Turning to `C[C@H](CCCC(O)c1c(F)cccc1F)[C@H]1CC[C@H]2[C@@H]3CC[C@H]4C(=O)[C@@H](O)CC[C@]4(C)[C@H]3CC[C@]12C` (stereo partly shown) [compound 298], the IC50 in the data set with SREBP pathway is 0.028 µM. Moreover, the half-life at 1 µM in data set [1] was determined as 0.316 h.

Turning to `C[C@H](CCCC(C)(C)O)[C@H]1CC[C@H]2[C@@H]3CC[C@H]4CC(CO)CC[C@]4(C)[C@H]3CC[C@]12C` (stereo partly drawn) [compound 308, 3-(hydroxymethyl)-5α-cholest-25-ol], the IC50 in the data set on SREBP pathway is 0.979 µM.

Turning to `C[C@H](CCCC(C)(C)O)[C@H]1CC[C@H]2[C@@H]3CC[C@H]4CC(C(=O)O)CC[C@]4(C)[C@H]3CC[C@]12C` (stereo partly drawn) [compound 309, 25-hydroxy-5α-cholest-3-carboxylic acid], the IC50 in the data set on SREBP pathway was 8.96 µM.

As to `C[C@H](CCCC(C)(C)O)[C@H]1CC[C@H]2[C@@H]3CC[C@H]4CC(NS(C)(=O)=O)CC[C@]4(C)[C@H]3CC[C@]12C` (stereo partly drawn) [compound 310, N-[(1R,3aS,3bR,9aS,9bS,11aR)-1-[(2R)-6-hydroxy-6-methylheptan-2-yl]-9a,11a-dimethylhexadecahydro-1H-cyclopenta[1,2-a]phenanthrene-7-yl]methanesulfonamide], in the data set with SREBP pathway, the IC50 worked out at 1.41 µM.

Take `COc1ccccc1C(O)CCC[C@@H](C)[C@H]1CC[C@H]2[C@@H]3CC[C@H]4C[C@@H](O)CC[C@]4(C)[C@H]3CC[C@]12C` (stereo partly drawn) [compound 312, 24-[hydroxy(2-methoxyphenyl)methyl]-5α-cholan-3β-ol]: the IC50 in the data set on SREBP pathway came to 0.18 µM.

In the case of `C[C@H](CCCC(C)(C)O)[C@H]1CC[C@H]2[C@@H]3CC[C@H]4[C@@H](O)[C@@H](OC(=O)CO)CC[C@]4(C)[C@H]3CC[C@]12C` [compound 313, (1R,3aS,3bS,5aR,6R,7S,9aR,9bS,11aR)-6-hydroxy-1-[(2R)-6-hydroxy-6-methylheptan-2-yl]-9a,11a-dimethylhexadecahydro-1H-cyclopenta[1,2-i]phenanthren-7-yl hydroxyacetate], the IC50 in the data set with SREBP pathway stood at 0.07 µM.

In the case of `C[C@H](CCCC(O)c1ccc(F)cc1)[C@H]1CC[C@H]2[C@@H]3CC[C@H]4[C@@H](O)[C@@H](O)CC[C@]4(C)[C@H]3CC[C@]12C` (stereo partly drawn) [compound 316, 24-[(4-fluorophenyl)(hydroxy)methyl]-5α-cholan-3β,4β-diol], the IC50 in the data set on SREBP pathway was found to be 0.1 µM.

`COc1ccccc1C(O)CCC[C@@H](C)[C@H]1CC[C@H]2[C@@H]3C(=O)C[C@H]4[C@@H](O)[C@@H](O)CC[C@]4(C)[C@H]3CC[C@]12C` (stereo partly drawn) [compound 320, 4β-hydroxy-3β-hydroxy-24-[hydroxy(2-methoxyphenyl)methyl]-5α-cholan-7-one]: the IC50 in the data set on SREBP pathway came to 0.16 µM.

On to `COC(=O)C1CC[C@@]2(C)[C@@H](CC[C@@H]3[C@@H]2CC[C@]2(C)[C@@H]([C@H](C)CCCC(C)(C)O)CC[C@@H]32)C1` (stereo partly drawn) [compound 321, methyl 25-hydroxy-5α-cholest-3-carboxylate], for which the IC50 with SREBP pathway was 7.2 µM.

In the case of `C[C@H](CCCC(O)c1ccccc1Cl)[C@H]1CC[C@H]2[C@@H]3CC[C@H]4[C@@H](O)[C@@H](O)CC[C@]4(C)[C@H]3CC[C@]12C` (stereo partly drawn) [compound 322, 24-[(2-chlorophenyl)(hydroxy)methyl]-5α-cholan-3β,4β-diol], in the data set with SREBP pathway, the IC50 came to 0.61 µM.

Consider `Cc1ccccc1C(O)CCC[C@@H](C)[C@H]1CC[C@H]2[C@@H]3CC[C@H]4[C@@H](O)[C@@H](O)CC[C@]4(C)[C@H]3CC[C@]12C` (stereo partly drawn) [compound 323, 24-[hydroxy(2-methylphenyl)methyl]-5α-cholan-3β,4β-diol], for which the IC50 with SREBP pathway was 0.25 µM.
